Measurements taken from PMC6969523, “Corazonin signaling integrates energy homeostasis and lunar phase to regulate aspects of growth and sexual maturation in Platynereis” (Proceedings of the National Academy of Sciences of the …, 2019).
Entries after “also recorded” stand apart in the source; their conditions may differ. Non-standard residues stand in square brackets, D forms with d. Residues, ends and D or L forms follow the SMILES beside them. pGlu = O=C1CC[C@@H](C(=O)O)N1

Columns and labels:
[1] = molecular target: T1, GnRHR1/AKHR1 (Platynereis dumerilii, UniProt A0A6B9MSD4); assay: Calcium mobilization (deorphanization) assay, GnRHR1/AKHR1; format: cell-based
T1 sequence (A0A6B9MSD4 1-359): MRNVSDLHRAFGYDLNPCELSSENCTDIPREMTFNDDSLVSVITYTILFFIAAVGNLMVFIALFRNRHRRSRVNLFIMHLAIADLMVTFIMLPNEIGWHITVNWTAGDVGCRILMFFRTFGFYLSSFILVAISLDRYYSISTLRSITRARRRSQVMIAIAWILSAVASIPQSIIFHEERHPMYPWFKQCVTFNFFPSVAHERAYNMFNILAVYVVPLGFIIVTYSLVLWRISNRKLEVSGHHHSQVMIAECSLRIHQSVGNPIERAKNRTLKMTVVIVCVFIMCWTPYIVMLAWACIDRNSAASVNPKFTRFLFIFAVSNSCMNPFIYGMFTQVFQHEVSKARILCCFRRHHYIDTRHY
Text: (§1) We next took advantage of a cell culture-based calcium mobilization assay ([59]) for assessing the ligand–receptor interactions of these receptors. […] Given that a receptor for GnRHL3 was still missing, we tested ligand–receptor interactions of all identified Platynereis GnRH-like receptors. […] As we presently cannot exclude the existence of an additional GnRH-like receptor in Platynereis that might be activated by GnRHL3 at lower concentrations, we here use the more generic name (GnRHL3) for this ligand.
(§2) CrzRb was identified and initially deorphanized in ref. [54]. GnRHR1/AKHR1 and GnRHR2/AKHR2, as well as the second isoform of CrzR (CrzRa) were identified using an in silico approach and confirmed by cloning and sequencing. To facilitate deorphanization, cDNA of these receptors was amplified from laboratory Platynereis strains and cloned into the pcDNA3.1 (+) vector. […] Receptor activation was measured by monitoring calcium responses for 30 s on a Mithras LB 940 luminometer (Berthold Technologies). Percentage activation values of receptors were plotted for each receptor, and half maximal effective concentrations (EC50 value) were calculated using a computerized nonlinear regression analysis with a sigmoidal dose–response equation (GraphPad PRISM software). […]

[2] = molecular target: T2, GnRHR2/AKHR2 (Platynereis dumerilii, UniProt A0A6B9MRA0); assay: Calcium mobilization (deorphanization) assay, GnRHR2/AKHR2; format: cell-based
T2 sequence (A0A6B9MRA0 1-355): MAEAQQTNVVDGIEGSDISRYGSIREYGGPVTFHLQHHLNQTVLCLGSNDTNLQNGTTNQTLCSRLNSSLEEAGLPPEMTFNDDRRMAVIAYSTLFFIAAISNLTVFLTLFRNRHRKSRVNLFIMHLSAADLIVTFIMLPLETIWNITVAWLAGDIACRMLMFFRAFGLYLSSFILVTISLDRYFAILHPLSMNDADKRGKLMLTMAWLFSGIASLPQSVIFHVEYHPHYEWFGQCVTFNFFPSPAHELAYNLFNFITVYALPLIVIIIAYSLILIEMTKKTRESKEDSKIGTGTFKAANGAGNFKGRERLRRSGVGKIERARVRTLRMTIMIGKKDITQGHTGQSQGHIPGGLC
Text: as §1, §2

[3] = tested on: GnRH-superfamily receptors; assay: Activation of GnRH-superfamily receptors in vitro; format: cell-based, Platynereis dumerilii
Text: as §1, §2

[4] = tested on: glucose production; details: vertebrate glucagon; glycogenolysis and gluconeogenesis; ref [38], [66], [77]–[79]; cited from earlier work
Text: The focus on the metabolic consequences of CRZ/GnRHL provides an interesting perspective for the cross-comparison of corazonin signaling with other signaling systems. The proposed role of worm CRZ1 in promoting the expression of α-glucosidases and pepck is reminiscent of the action of the GnRH-like AKH peptide in flies but also the role of vertebrate glucagon, an independent factor that has been discussed as a functional analog of insect AKH signaling ([38], [66], [77]–[79]). […] Thus, CRZ1/GnRHL1 see ...

[5] = molecular target: T3, CrzRa (Platynereis dumerilii, UniProt A0A6B9MK47); assay: Calcium mobilization (deorphanization) assay, CrzRa; format: cell-based
T3 sequence (A0A6B9MK47 1-288): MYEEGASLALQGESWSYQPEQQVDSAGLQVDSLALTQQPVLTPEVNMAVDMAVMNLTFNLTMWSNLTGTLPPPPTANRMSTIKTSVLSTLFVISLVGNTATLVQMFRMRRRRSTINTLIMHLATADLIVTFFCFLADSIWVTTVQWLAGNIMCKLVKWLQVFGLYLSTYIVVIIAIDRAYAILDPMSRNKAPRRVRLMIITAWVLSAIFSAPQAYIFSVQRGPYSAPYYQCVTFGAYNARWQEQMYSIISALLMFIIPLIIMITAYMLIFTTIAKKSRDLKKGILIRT
Text: as §1, §2

[6] = molecular target: T4, CrzRb (Platynereis dumerilii, UniProt A0A291FE86); assay: Calcium mobilization (deorphanization) assay, CrzRb; format: cell-based
T4 sequence (A0A291FE86 1-422): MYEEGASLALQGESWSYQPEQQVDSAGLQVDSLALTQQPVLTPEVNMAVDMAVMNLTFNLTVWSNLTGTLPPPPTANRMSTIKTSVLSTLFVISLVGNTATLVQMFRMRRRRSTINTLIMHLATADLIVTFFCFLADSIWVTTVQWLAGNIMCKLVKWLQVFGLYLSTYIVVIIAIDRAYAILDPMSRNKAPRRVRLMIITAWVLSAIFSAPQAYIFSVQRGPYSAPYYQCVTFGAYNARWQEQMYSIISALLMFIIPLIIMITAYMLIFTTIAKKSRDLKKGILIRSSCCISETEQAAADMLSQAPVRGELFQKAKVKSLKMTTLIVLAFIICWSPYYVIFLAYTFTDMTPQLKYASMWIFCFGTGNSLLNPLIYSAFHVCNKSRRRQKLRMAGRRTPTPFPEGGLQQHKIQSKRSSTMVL
Text: as §1, §2

[7] = molecular target: CrzR; assay: Ligand-receptor interaction, Corazonin receptor (isoform not given); format: cell-based, Platynereis dumerilii
Text: as §1, §2

[8] = tested on: honeybee larvae; details: fed with swainsonine; ref SI 20; cited from earlier work
Text: Cons e que nce s of lys os oma l α-ma n n o si d as e im p a i r me n t s i n o t h e r s pe ci es One of the molecular consequences of knocking out the Platynereis crz1/gnrhl1 gene that we reveal in this study is the strong reduction of lysosomal α-mannosidase. In huma ...

[9] = tested on: female mice; details: female mice injected with leptin; ref [50]–[52]; cited from earlier work
Text: In turn, strong interconnections between the GnRH system and metabolism can also be found in several vertebrates. […] In mammals, GnRH release is also regulated by the orexigenic neuropeptide Y (NPY) and kisspeptin, which relays both sex steroid and leptin signaling to GnRH neurons ([49]). In line with this, a high-fat diet increases hypothalamic gnrh expression in prepubescent gilts ([50]), where this treatm ...

[10] = CHO cells stably expressing apo-aequorin and human Gα16, transient transfection, calcium response 30 s, luminometer, nonlinear regression, at least 4 replicates in at least 2 independent experiments
[11] = CHO cells, all receptors tested with all ligands
[12] = CHO cells, all receptor-ligand combinations tested, GnRHL3 at higher concentration (sub-micromolar to micromolar range)

Molecule: CC(C)C[C@H](NC(=O)[C@H](CO)NC(=O)[C@H](CCC(N)=O)NC(=O)[C@@H](NC(=O)[C@H](CC(C)C)NC(=O)[C@@H]1CCC(=O)N1)[C@@H](C)O)C(=O)NCC(=O)N[C@@H](Cc1c[nH]c2ccccc12)C(=O)NCC(=O)N[C@@H](CO)C(=O)N[C@@H](C)C(=O)NCC(=O)N[C@@H](CO)C(=O)N[C@@H](CO)C(N)=O [GnRH2/GnRHL4] ([pGlu]LTQSLGWGSAGSS-NH2)
- EC50 [1, 10]: 11.5 nM
- activation of GnRHR1/AKHR1 [1, 11]: specifically activated; also recorded: respond only to a single ligand
- EC50 [2, 10]: 200 nM
- activation of GnRHR2/AKHR2 [2, 11]: specifically activated; also recorded: respond only to a single ligand
- activation of GnRH-superfamily receptors in vitro [3]: activate GnRH-superfamily receptors in vitro

Molecule: glucagon
- glucose production [4]: increased glucose production

Molecule: CC(C)C[C@H](NC(=O)[C@H](CO)NC(=O)[C@H](Cc1ccccc1)NC(=O)[C@H](CO)NC(=O)[C@H](Cc1ccccc1)NC(=O)[C@@H]1CCC(=O)N1)C(=O)N1CCC[C@H]1C(=O)NCC(=O)N[C@@H](CCCCN)C(=O)N[C@@H](Cc1c[nH]c2ccccc12)C(=O)NCC(=O)N[C@@H](CC(N)=O)C(N)=O [GnRHL3] ([pGlu]FSFSLPGKWGN-NH2)
- EC50 [5, 10]: 500 nM
- activation of CrzRa [5, 12]: also respond; also recorded: at higher concentration
- EC50 [6, 10]: 5800 nM
- activation of CrzRb [6, 12]: also respond; also recorded: at higher concentration
- EC50 levels for CrzR activation compared with the other CRZ ligands ([7]; GnRHL3-CrzR activation assay versus other CRZ ligands): significantly higher
- activation of CrzR ([7]; ligand-receptor interaction analyses, isoform not stated): activated
- activation of GnRH-superfamily receptors in vitro [3]: activate GnRH-superfamily receptors in vitro

Molecule: O[C@H]1[C@H]2[C@H](O)CCCN2C[C@H]1O [swainsonine]
- development of honeybee larvae [8]: developmental delay in pupal metamorphosis

B1: leptin: leptin, injected in female mice (protein, UniProt P41160 22-167, looked up)
Leptin: VPIQKVQDDTKTLIKTIVTRINDISHTQSVSAKQRVTGLDFIPGLHPILSLSKMDQTLAVYQQVLTSLPSQNVLQIANDLENLRDLLHLLAFSKSCSLPQTSGLQKPESLDGVLEASLYSTEVVALSRLQGSLQDILQQLDVSPEC
- puberty onset [9]: advances puberty onset
